Reference: US20110207926A1, “NOVEL DIHYDROTRIAZINE DERIVATIVE” (HAMARI CHEMICALS, LTD., priority 2008, published 2011)
Like-named read-outs stand apart in the source and are kept apart here.

Tests used:
[1] = Water solubility test (Japanese Pharmacopoeia solubility test method); format: physicochemical; settings: 20±5° C., dissolution in 30 min; for evaluation (water solubility): criteria of Table 9
Procedure: According to the Japanese Pharmacopoeia solubility test method, the compounds of Examples 1 and 7 of the present invention and the corresponding N-methyl unsubstituted compounds were examined for water solubility. To be specific, a test substance was powderized, placed in water and the mixture was vigorously shaken for 30 sec every 5 min at 20±5° C. The solubility was evaluated based on the degree of dissolution in 30 min by reference to the following Table 9.

MRSA ATCC 33591 = assay: Bactericidal activity test (MBC measurement); format: cell-based, methicillin-resistant Staphylococcus aureus
Procedure: (§1) Each strain was cultured in Trypticase Soy agar medium for 18 to 20 hr, suspended in 0.1% peptone saline, and prepared to OD 600 nm, 1.0 McFarland. The suspension was further diluted with 0.1% peptone saline to give a test bacteria solution (targeted value; 2×10^7 CFU/mL).
(§2) At 0.5, 1 and 3 min from the start of the reaction, a part of the reaction mixture was sampled and mixed with an equal amount of a neutralizing agent (10% Tween 80, 3% lecithin/aqueous solution) to terminate the bactericidal reaction. The reaction mixture was inoculated to a 96 well microplate dispensed with 180 μL of Tripticase Soy liquid medium in advance, and statically cultured at 37° C. for 20 to 24 hr. Thereafter, the presence or absence of growth was visually evaluated, and the minimum concentration at which growth was not observed was taken as the minimal bactericidal concentration (MBC value) of each action time. The numerical values in the Tables show MBC, the unit is μg/mL, S. aureus means Staphylococcus aureus, MRSA means methicillin-resistant Staphylococcus aureus, E. coli means Escherichia coli, and P. aeruginosa means Pseudomonas aeruginosa.

E. coli ATCC 25922 = assay: Bactericidal activity test (MBC measurement); format: cell-based, Escherichia coli
Procedure: as §1, §2

P. aeruginosa ATCC 27853 = assay: Bactericidal activity test (MBC measurement); format: cell-based, Pseudomonas aeruginosa
Procedure: as §1, §2

P. aeruginosa PAO-1 = assay: Bactericidal activity test (MBC measurement); format: cell-based, Pseudomonas aeruginosa
Procedure: as §1, §2

S. aureus ATCC 6538 = assay: Bactericidal activity test (MBC measurement); format: cell-based, Staphylococcus aureus
Procedure: as §1, §2

[2] = Skin sensitivity test, LLNA-BrdU method (lymph node weight); format: in vivo; settings: 5 w/v % in acetone/olive oil 4:1, transdermal to auricle once a day for 3 days, mice
Procedure: For application of an external bactericidal/disinfectant agent to the skin, the sensitivity (allergenicity) is desirably as small as possible. […] The sensitivity was evaluated by a Local lymph node assay (LLNA) method using Bromodeoxyuridine (BrdU). In this test, measurement of the amount of BrdU uptaken by the lymph node using an ELISA kit was not performed, and the evaluation was based solely on the weight increase of the lymph node.
8-Week-old female CBA/JN Crlj mice were grouped (3 per group) according to the adequate strafication method based on the body weight (about 20 g) on the first day of administration. A test substance was prepared to 5 w/v % for each test substance by using a mixed solution of acetone and olive oil (v/v=4:1, A00). This was repeatedly administered transdermally to the auricle of the mice at 25 μL/auricle (50 for both auricles) once a day for 3 days. Two days after the final administration, BrdU 10 mg/mL (0.5 mL/mouse) was intraperitoneally administered. Three days after the final transdermal administration (next day of BrdU administration), carbon dioxide was given by inhalation to a comfortable death, and the auricle lymph node was isolated and the weight thereof was measured.

[3] = Staphylococcus aureus, 0.5 min, MRSA ATCC 33591, action time 0.5 min, read-out: MBC
[4] = Staphylococcus aureus, 1 min, MRSA ATCC 33591, action time 1 min, read-out: MBC
[5] = Staphylococcus aureus, 0.05 h, MRSA ATCC 33591, action time 3 min, read-out: MBC
[6] = Escherichia coli, ATCC25922, 0.5 min, E. coli ATCC 25922, action time 0.5 min, read-out: MBC
[7] = Escherichia coli, ATCC25922, 1 min, E. coli ATCC 25922, action time 1 min, read-out: MBC
[8] = Escherichia coli, ATCC25922, 0.05 h, E. coli ATCC 25922, action time 3 min, read-out: MBC
[9] = Pseudomonas aeruginosa, ATCC27853, 0.5 min, P. aeruginosa ATCC 27853, action time 0.5 min, read-out: MBC
[10] = Pseudomonas aeruginosa, ATCC27853, 1 min, P. aeruginosa ATCC 27853, action time 1 min, read-out: MBC
[11] = Pseudomonas aeruginosa, ATCC27853, 0.05 h, P. aeruginosa ATCC 27853, action time 3 min, read-out: MBC
[12] = Pseudomonas aeruginosa, PAO1, 0.5 min, P. aeruginosa PAO-1, action time 0.5 min, read-out: MBC
[13] = Pseudomonas aeruginosa, PAO1, 1 min, P. aeruginosa PAO-1, action time 1 min, read-out: MBC
[14] = Pseudomonas aeruginosa, PAO1, 0.05 h, P. aeruginosa PAO-1, action time 3 min, read-out: MBC
[15] = Staphylococcus aureus, ATCC6538, 0.5 min, S. aureus ATCC 6538, action time 0.5 min, read-out: MBC
[16] = Staphylococcus aureus, ATCC6538, 1 min, S. aureus ATCC 6538, action time 1 min, read-out: MBC
[17] = Staphylococcus aureus, ATCC6538, 0.05 h, S. aureus ATCC 6538, action time 3 min, read-out: MBC

Row | SMILES | MBC (MRSA ATCC 33591; [3]) | MBC (MRSA ATCC 33591; [4]) | MBC (MRSA ATCC 33591; [5]) | MBC (E. coli ATCC 25922; [6]) | MBC (E. coli ATCC 25922; [7]) | MBC (E. coli ATCC 25922; [8]) | MBC (P. aeruginosa ATCC 27853; [9]) | MBC (P. aeruginosa ATCC 27853; [10]) | MBC (P. aeruginosa ATCC 27853; [11]) | MBC (P. aeruginosa PAO-1; [12]) | MBC (P. aeruginosa PAO-1; [13]) | MBC (P. aeruginosa PAO-1; [14]) | MBC (S. aureus ATCC 6538; [15]) | MBC (S. aureus ATCC 6538; [16]) | MBC (S. aureus ATCC 6538; [17]) | further results
1 | CCCCCCCCNC1=NC(C)(C)NC(NCc2ccc(Cl)cc2)=N1 [Comp. Ex. 1, reference compound] | – | – | – | – | – | – | – | – | – | – | – | – | – | – | – | water (mL) to dissolve 1 g [1]: 110 mL; evaluation (water solubility) [1]: slightly soluble (not less than 100 mL less than 1,000 mL)
2 | CCCCCCCCNC1=NC(C)(C)NC(NCc2ccc(C)cc2)=N1 [Comp. Ex. 2, reference compound] | – | – | – | – | – | – | – | – | – | – | – | – | – | – | – | water (mL) to dissolve 1 g [1]: 50 mL; evaluation (water solubility) [1]: sparingly soluble (not less than 30 mL less than 100 mL)
3 | CCCCCCCCN(C)C1=NC(C)(C)NC(NCc2ccc(Cl)cc2)=N1 [Example 1, N^4-octyl-N^4-methyl-1,6-dihydro-6,6-dimethyl-N^2— (4-chlorobenzyl)-1,3,5-triazine-2,4-diamine acetate] | 50 µg/mL | 25 µg/mL | 12.5 µg/mL | 12.5 µg/mL | 12.5 µg/mL | 12.5 µg/mL | 12.5 µg/mL | 12.5 µg/mL | 12.5 µg/mL | 12.5 µg/mL | 12.5 µg/mL | 12.5 µg/mL | 50 µg/mL | 12 µg/mL | 6.25 µg/mL | water (mL) to dissolve 1 g [1]: <0.5 mL; evaluation (water solubility) [1]: very soluble (less than 1 mL)
4 | CC(=O)O.CCCCCCCCN(C)C1=NC(C)(C)NC(NCc2ccc(Cl)c(Cl)c2)=N1 [Example 2, N^4-octyl-N^4-methyl-1,6-dihydro-6,6-dimethyl-N^2— (3,4-dichlorobenzyl)-1,3,5-triazine-2,4-diamine acetate] | 25 µg/mL | 25 µg/mL | 12.5 µg/mL | 12.5 µg/mL | 6.25 µg/mL | 6.25 µg/mL | 25 µg/mL | 25 µg/mL | 12.5 µg/mL | 25 µg/mL | 25 µg/mL | 12.5 µg/mL | 25 µg/mL | 25 µg/mL | 12.5 µg/mL | –
5 | CC(=O)O.CCCCCCCCCNC1=NC(C)(C)NC(N(C)Cc2ccccc2)=N1 [Example 4, 1,6-dihydro-6,6-dimethyl-N^4-nonyl-N^2-benzyl-N^2-methyl-1,3,5-triazine-2,4-diamine acetate] | 25 µg/mL | – | – | 12.5 µg/mL | – | – | 25 µg/mL | – | – | 25 µg/mL | – | – | 100 µg/mL | – | – | –
6 | CC(=O)O.CCCCCCCCN(C)C1=NC(C)(C)NC(N(C)Cc2ccccc2)=N1 [Example 6, N^4-octyl-N^4-methyl-1,6-dihydro-6,6-dimethyl-N^2-benzyl-N^2-methyl-1,3,5-triazine-2,4-diamine acetate] | 200 µg/mL | – | – | 25 µg/mL | – | – | 25 µg/mL | – | – | 25 µg/mL | – | – | > 200 µg/mL | – | – | –
7 | CCCCCCCCN(C)C(=N)NC(=N)NCc1ccc(Cl)c(Cl)c1.Cl [Example 28, N^5-octyl-N^5-methyl-N^1-(3,4-dichlorobenzyl)biguanide hydrochloride] | 50 µg/mL | 12.5 µg/mL | 12.5 µg/mL | 6.25 µg/mL | 6.25 µg/mL | 6.25 µg/mL | 25 µg/mL | 25 µg/mL | 12.5 µg/mL | 12.5 µg/mL | 12.5 µg/mL | 6.25 µg/mL | 25 µg/mL | 12.5 µg/mL | 12.5 µg/mL | –
8 | CCCCCCCCCCNC(=N)NC(=N)N(C)Cc1ccccc1.Cl.Cl [Example 29, N^5-decyl-N′-methyl-N′-benzyl-biguanide dihydrochloride] | – | – | – | – | – | – | – | – | – | – | – | – | – | – | – | MBC (MRSA ATCC 33591; MRSA ATCC 33591, action time 0.5 min): 200 µg/mL; MBC (MRSA ATCC 33591; MRSA ATCC 33591, action time 1 min): 200 µg/mL; MBC (MRSA ATCC 33591; MRSA ATCC 33591, action time 3 min): 50 µg/mL; MBC (E. coli ATCC 25922; E. coli ATCC 25922, action time 0.5 min): 6.25 µg/mL; MBC (E. coli ATCC 25922; E. coli ATCC 25922, action time 1 min): 6.25 µg/mL; MBC (E. coli ATCC 25922; E. coli ATCC 25922, action time 3 min): 6.25 µg/mL; MBC (P. aeruginosa ATCC 27853; P. aeruginosa ATCC 27853, action time 0.5 min): 12.5 µg/mL; MBC (P. aeruginosa ATCC 27853; P. aeruginosa ATCC 27853, action time 1 min): 12.5 µg/mL; MBC (P. aeruginosa ATCC 27853; P. aeruginosa ATCC 27853, action time 3 min): 6.25 µg/mL; MBC (P. aeruginosa PAO-1; P. aeruginosa PAO-1, action time 0.5 min): 12.5 µg/mL; MBC (P. aeruginosa PAO-1; P. aeruginosa PAO-1, action time 1 min): 12.5 µg/mL; MBC (P. aeruginosa PAO-1; P. aeruginosa PAO-1, action time 3 min): 6.25 µg/mL; MBC (S. aureus ATCC 6538; S. aureus ATCC 6538, action time 0.5 min): 200 µg/mL; MBC (S. aureus ATCC 6538; S. aureus ATCC 6538, action time 1 min): 100 µg/mL; MBC (S. aureus ATCC 6538; S. aureus ATCC 6538, action time 3 min): 12.5 µg/mL
9 | CCCCCCCCCNC(=N)NC(=N)N(C)Cc1ccccc1.Cl.Cl [Example 30, N^5-nonyl-N^1-methyl-N^1-benzyl-biguanide dihydrochloride] | > 200 µg/mL | > 100 µg/mL | 25 µg/mL | 12.5 µg/mL | 12.5 µg/mL | 12.5 µg/mL | 6.25 µg/mL | 6.25 µg/mL | 6.25 µg/mL | 12.5 µg/mL | 6.25 µg/mL | 6.25 µg/mL | 200 µg/mL | 100 µg/mL | 25 µg/mL | –
10 | CCCCCCCCNC1=NC(C)(C)N=C(NCC2CCCCC2)N1 [Ref. Ex. 3, 4-octylamino-2-cyclohexylmethylamino-1,6-dihydro-6,6-dimethyl-1,3,5-triazine acetate, reference compound] | – | – | – | – | – | – | – | – | – | – | – | – | – | – | – | SI value (Stimulation index, lymph node weight ratio to solvent group) [2]: 4.6
11 | CCCCCCCCNC1=NC(C)(C)NC(Nc2ccccc2)=N1 [Ref. Ex. 4, 1,6-dihydro-6,6-dimethyl-4-octylamino-2-phenylamino-1,3,5-triazine acetate, reference compound] | – | – | – | – | – | – | – | – | – | – | – | – | – | – | – | SI value (Stimulation index, lymph node weight ratio to solvent group) [2]: 4.4
